This note sets out measurements from publication PMC4867592, “Targeting multiple response regulators of Mycobacterium tuberculosis augments the host immune response to infection” (Scientific Reports, 2016).

One data set concerns the target T1, MtrA (Mycobacterium tuberculosis, UniProt P9WGM7).
T1 construct: Full length MtrA/Rv3246c excluding the stop codon; His (C); made in house; host or cells: E. coli C41(DE3)
T1 sequence (P9WGM7 1-228): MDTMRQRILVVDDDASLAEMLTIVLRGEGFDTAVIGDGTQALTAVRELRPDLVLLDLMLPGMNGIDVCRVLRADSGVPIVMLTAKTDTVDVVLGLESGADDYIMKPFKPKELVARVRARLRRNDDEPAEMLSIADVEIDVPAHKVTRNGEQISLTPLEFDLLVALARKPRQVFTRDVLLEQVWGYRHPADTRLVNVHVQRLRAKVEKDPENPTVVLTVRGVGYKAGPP
Put plainly: EMSA: binding of phosphorylated MtrA to fbpB promoter DNA. Further details: species or system Mtb.

The target of the next data set is T2, RegX3 (Mycobacterium tuberculosis, UniProt P9WGL9).
T2 construct: made in house; host or cells: E. coli
T2 sequence (P9WGL9 1-227): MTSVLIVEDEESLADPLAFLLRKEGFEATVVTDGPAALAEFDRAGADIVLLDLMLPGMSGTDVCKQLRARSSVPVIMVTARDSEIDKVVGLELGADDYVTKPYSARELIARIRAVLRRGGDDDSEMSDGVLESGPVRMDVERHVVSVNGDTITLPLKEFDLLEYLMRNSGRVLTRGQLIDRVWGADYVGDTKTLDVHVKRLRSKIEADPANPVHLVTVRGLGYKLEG
Nature of the data set: EMSA: binding of phosphorylated RegX3 to ppk1 promoter DNA. Further details: species or system Mtb.

Another data set addresses T3, MprA (Mycobacterium tuberculosis, UniProt P9WGM9).
T3 construct: His (N); made in house; host or cells: E. coli BL21(DE3)
T3 sequence (P9WGM9 1-230): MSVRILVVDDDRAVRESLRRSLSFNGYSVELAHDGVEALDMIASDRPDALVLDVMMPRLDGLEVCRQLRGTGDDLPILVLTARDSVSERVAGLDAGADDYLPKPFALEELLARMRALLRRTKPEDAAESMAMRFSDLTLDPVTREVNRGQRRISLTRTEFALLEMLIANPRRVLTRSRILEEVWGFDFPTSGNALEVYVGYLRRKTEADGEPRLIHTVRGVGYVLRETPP
Put plainly: EMSA: binding of phosphorylated MprA to mprA promoter DNA. Further details: species or system Mtb.

The next data set concerns the target T4, DosR (Mycobacterium tuberculosis, UniProt P9WMF9).
T4 construct: His6; made in house; host or cells: E. coli C43(DE3)
Nature of the data set: EMSA: binding of phosphorylated DosR (DevR) to hspX promoter-derived DNA. Further details: species or system Mtb.

The subject of data set [1] is Mtb. Put plainly: Alamar Blue assay of Mtb growth in vitro. The class given is cell-based, Mycobacterium tuberculosis H37Rv.
For another data set, the system named is Mtb in BMDM. Nature of the data set: Mtb CFU in infected murine bone marrow derived macrophages. The note with it: MOI 5, 20 μM, after 6 days. The data set is classed as cell-based, Mycobacterium tuberculosis H37Rv.
The test system of a further data set is Mtb in hMDM. Put plainly: Mtb CFU in infected human monocyte derived macrophages. The data set is classed as cell-based, Mycobacterium tuberculosis H37Rv. The note with it: MOI 5, 20 μM, after 6 days.
For data set [2], the system named is NO release from macrophages. Put plainly: NO (nitrite) release from macrophages, Griess reagent. The class given is cell-based. As for the experimental part: For NO (nitrite) measurements, RAW264.7 was infected with Mtb in DMEM for 24–48 h. Nitrite was measured using Griess reagent (Invitrogen), according to the manufacturer’s instructions. Absorbance was read at 540 nm in an ELISA reader and the concentrations of nitrite were calculated against a standard curve.
(§1) RAW 264.7 cells or hMDMs or BMDMs were seeded at ~3x10^5 cells per well on 18 mm cover slips.
(§2) After infection and treatment with C2 or isoniazid (INH) , the cells were fixed with 4% paraformaldehyde for 10 min at 25°C followed by permeabilisation with 0.01% Triton X-100 in PBS for 10 min at 25°C. The cells were then treated with 10% BSA in PBS for 90 min at 25°C followed by treatment with anti-LC3 antibody at 4°C overnight. Cells were then washed with PBS and treated with Alexa488 conjugated secondary antibody for 90 min at 25°C. Cells were visualized in a Leica confocal […]
(§3) Bacterial CFU determinations
RAW264.7 cells or hMDMs or BMDMs were plated in 48 well plates. Cells were infected with Mtb and treated with C2 or C6 for the desired periods of time. […] CFUs were calculated in triplicate using standard procedures. […] Alamar Blue was added and readings were taken upon development of […]
For NO (nitrite) measurements, RAW264.7 or MDMs or BMDMs were infected with Mtb H37Rv. […] Supernatant nitrite concentrations were measured by reading absorbance at 540 nm and calculated using a standard curve. […]
Background: The Griess reaction detects nitrite, a stable product of nitric oxide.

For a further data set, the system named is Mtb-infected macrophages. Nature of the data set: Autophagy assays in Mtb-infected macrophages (LC3-II immunoblot, LC3 puncta). The class given is cell-based. The note with it: for LC3 puncta formation in infected macrophages: BMDMs, hMDMs, RAW264.7, C2 20 μM, isoniazid 0.5 µg/ml. As for the experimental part:
For autophagy analysis, infected macrophages were lysed and immunoblotted with LC3 antibody. For the visualisation of LC3 puncta, infected macrophages were incubated with LC3 antibody followed by immunostaining with Alexa 488-conjugated secondary antibody. Images were acquired in a Leica confocal microscope. At least 100 cells were counted to enumerate the number of punctated cells. Detailed methods have been provided in the supplemental section.
as §1, §2, §3
RAW264.7 cells or hMDMs or BMDMs were plated in 48 well plates. Cells were infected with Mtb and treated with C2 or C6 for the desired periods of time. Infected cells were lysed in distilled water with 0.06% SDS. Serial dilutions of homogenates were plated on 7H11 agar plates supplemented with 10% OADC and incubated at 37 °C for 3–4 weeks. CFUs were calculated in triplicate using standard procedures. For Alamar Blue assays, bacteria from the cell lysates were washed and transferred to a 96 well plate in MB 7H9. Alamar Blue was added and readings were taken upon development of […]
For NO (nitrite) measurements, RAW264.7 or MDMs or BMDMs were infected with Mtb H37Rv. Control and infected supernatants obtained in the absence or presence of C2, were used for the measurement of nitrite using Griess reagent (Invitrogen), according to the manufacturer’s instructions. Supernatant nitrite concentrations were measured by reading absorbance at 540 nm and calculated using a standard curve. […]
A general note: Immunoblotting shows a protein as a band on a membrane.

For data set [3], the system named is Mtb. The class given is cell-based, Mycobacterium tuberculosis H37Rv.
The test system of data set [4] is Mtb. Nature of the data set: Growth curve of Mtb (absorbance at 600 nm). The class given is cell-based, Mycobacterium tuberculosis H37Rv.
The subject of data set [5] is Mtb. Nature of the data set: qRT-PCR / semi-quantitative RT-PCR of Mtb gene expression. The class given is cell-based, Mycobacterium tuberculosis H37Rv.
The subject of another data set is Mtb Erdman. The data set is classed as cell-based, Mycobacterium tuberculosis Erdman. The conditions noted are these: immunoblot.
The next data set deals with RAW264.7. Put plainly: Survival of RAW264.7 measured by Alamar Blue. A general note: Resazurin is reduced to fluorescent resorufin, in cell work by metabolically active cells.

Where “and” joins values, the source holds several entries; their conditions need not be identical. Equal entries are not always repeated. Where two headings read alike, the source gives them in different places.

T4 sequence (P9WMF9 whole entry): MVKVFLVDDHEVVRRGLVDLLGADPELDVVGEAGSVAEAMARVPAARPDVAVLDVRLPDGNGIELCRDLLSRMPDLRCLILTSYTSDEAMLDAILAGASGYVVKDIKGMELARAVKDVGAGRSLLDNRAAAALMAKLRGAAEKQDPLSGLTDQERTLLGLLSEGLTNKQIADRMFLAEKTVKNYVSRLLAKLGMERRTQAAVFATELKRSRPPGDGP

The IC50 is the point on the concentration scale where inhibition reaches its midpoint. Consider 2-iminothiazolidine-4-one [Compound 2], for which, at MtrA, the “Inhibition of DNA binding activity of MtrA” value is “could inhibit DNA binding activity of MtrA”. For the same compound, the half-maximal inhibitory concentration (IC50) on MtrA (densitometry, read-out: IC50, inhibition of MtrA binding to fbpB promoter) came to 21 µM; on RegX3 (densitometry, read-out: IC50, inhibition of RegX3 binding to ppk1 promoter) it was 18 µM; at MprA (densitometry, read-out: IC50, inhibition of MprA binding to mprA promoter) it was 4 µM; in the data set on Mtb [1] (read-out: In vitro IC50 against Mtb) it was 9 µM. Also, at RegX3, the “Inhibition of binding ability of RegX3” value is “inhibited the binding ability of RegX3”. For the same compound, the “Inhibition of binding ability of MprA” value at MprA is given as “inhibited”. For the same compound, the “Inhibition of DosR binding to hspX promoter-derived DNA fragment” value at DosR is “did not inhibit binding of DosR”. Besides, the “In vitro IC50 against Mtb” value with Mtb [1] is 6 µg/mL; with Mtb [1] (listed as C2), ~ 6 μg/ml. Also, the “In vitro MIC against Mtb” value with Mtb [1] was 17 μg/ml and 25 μM. Moreover, the “Decrease in CFU of Mtb in BMDMs” value in the data set on Mtb in BMDM was ~ 8 fold. Moreover, the “Decrease in CFU of Mtb in MDMs” value with Mtb in hMDM was ~ 8 fold. In addition, the “NO release from infected macrophages” value in data set [2] (Mtb-infected BMDMs, hMDMs, RAW264.7, 20 μM) is on record as “significantly higher”. The “NO release from uninfected macrophages” value in [2] (compound alone, data not shown) is listed as “did not affect NO release”. The “LC3 puncta formation in infected macrophages” value in the data set with Mtb-infected macrophages is on record as “enhanced”. In addition, the “Conversion of LC3-I to LC3-II” value in the data set on Mtb-infected macrophages (Mtb infected RAW 264.7, immunoblot) is reported as “enhanced”. Further, the “Retention of pBP10 by Mtb” value with Mtb [3] is given as “higher levels of retention of pBP10”. In addition, the “Growth curve of Mtb” value in the data set with Mtb [4] was “levelled off earlier”. In addition, in the data set with Mtb [5] (20 µM), the “Expression of activated targets sigB, sigE, Rv0081, ftsI, dnaN, pstS3” value is “repressed”. The “Expression of repressible targets rpfB, gltA1, cydA” value in the data set on Mtb [5] (20 µM) is “augmented”. In addition, the esxA expression entry in the data set with Mtb [5] (20 µM) is “lowered”. In the data set with Mtb [5] (20 µM, 48 hours of treatment), the “Expression of espA and espR” value is listed as “reduced”. For the same compound, in the data set on Mtb [5] (exposure for 48 h), the “Expression of mtrA, regX3 and mprA” value is “inhibited”. In addition, the “ESAT-6 in the culture filtrate” value in the data set with Mtb Erdman is on record as “reduced amounts of ESAT-6”. Further, the “Viability of RAW264.7” value with RAW264.7 is listed as “did not affect the viability”.
For `NNC(=O)c1ccncc1` [INH, isoniazid, reference compound], the “LC3 puncta formation in infected macrophages” value in the data set with Mtb-infected macrophages is recorded as “enhanced”.
